Values of other authors in patent publication US20210353546A1, “DUAL RELEASE PHARMACEUTICAL COMPOSITIONS COMPRISING THE COMBINATION OF A BETA-3 ADRENORECEPTOR AGONIST AND A MUSCARINIC RECEPTOR ANTAGONIST” (Jubilant Pharma Holdings Inc., priority 2020, published 2021).
Like-named read-outs stand apart in the source and are kept apart here.

What was measured:
[1] = not given; remark: listed apart in the source

Solubility (in dimethyl sulfoxide): soluble
Solubility (in methanol): soluble
Solubility (in water): practically insoluble
half-life ([1]; in vivo): approximately 50 hours
bioavailability, food effect ([1]; presence of food in the Gastrointestinal Tract): affected by the presence of food
Compound: Nc1nc(CC(=O)Nc2ccc(CCNC[C@H](O)c3ccccc3)cc2)cs1 [Mirabegron, 2-(2-aminothiazol-4-yl)-N-[4-(2-{[(2R)-2-hydroxy2-phenylethyl]amino}ethyl)phenyl] acetamide]
